Assay results as given in ChEMBL document CHEMBL1143409, “Efflux-related resistance to norfloxacin, dyes, and biocides in bloodstream isolates of Staphylococcus aureus” (2007).
Converted amounts (≈) assume the structure as drawn.

Key:
[1] = tested on: Staphylococcus aureus; assay: Antimicrobial activity against methicillin-resistant Staphylococcus aureus effluxing isolate; assay type: functional
[2] = tested on: Staphylococcus aureus; assay: Inhibition of multidrug-resistant efflux pump in methicillin-resistant Staphylococcus aureus effluxing isolate assessed as fold reduction of dequalinium MIC at 10 ug/ml by microdilution method; assay type: functional
[3] = tested on: Staphylococcus aureus; assay: Inhibition of multidrug-resistant efflux pump in methicillin-resistant Staphylococcus aureus effluxing isolate assessed as fold reduction of chlorehexidin MIC at 10 ug/ml by microdilution method; assay type: functional
[4] = tested on: Staphylococcus aureus; assay: Inhibition of multidrug-resistant efflux pump in methicillin-resistant Staphylococcus aureus effluxing isolate assessed as fold reduction of tetraphenylphosphonium bromide MIC at 10 ug/ml by microdilution method; assay type: functional
[5] = tested on: Staphylococcus aureus; assay: Inhibition of multidrug-resistant efflux pump in methicillin-resistant Staphylococcus aureus effluxing isolate assessed as fold reduction of Norfloxacin MIC at 10 ug/ml by microdilution method; assay type: functional
[6] = tested on: Staphylococcus aureus; assay: Inhibition of multidrug-resistant efflux pump in methicillin-resistant Staphylococcus aureus effluxing isolate assessed as fold reduction of citramide MIC at 10 ug/ml by microdilution method; assay type: functional, organism-based
[7] = tested on: Staphylococcus aureus; assay: Inhibition of multidrug-resistant efflux pump in methicillin-resistant Staphylococcus aureus effluxing isolate assessed as fold reduction of acriflavine MIC at 10 ug/ml by microdilution method; assay type: functional
[8] = tested on: Staphylococcus aureus; assay: Inhibition of multidrug-resistant efflux pump in methicillin-resistant Staphylococcus aureus effluxing isolate assessed as fold reduction of ethidium-bromide MIC at 10 ug/ml by microdilution method; assay type: functional

Cc1cc(N)c2ccccc2[n+]1CCCCCCCCCC[n+]1c(C)cc(N)c2ccccc21.[Cl-].[Cl-] [DEQUALINIUM CHLORIDE]
MIC50 [1]: 1.25 µg/mL | MIC90 [1]: 5 µg/mL | fold change (FC) [2]: 4

N=C(NCCCCCCNC(=N)NC(=N)Nc1ccc(Cl)cc1)NC(=N)Nc1ccc(Cl)cc1 [CHLORHEXIDINE]
fold change (FC) [3]: 8 | MIC50 [1]: 0.31 µg/mL (≈ 0.613 µM) | MIC90 [1]: 0.63 µg/mL (≈ 1.25 µM)

[Br-].c1ccc([P+](c2ccccc2)(c2ccccc2)c2ccccc2)cc1 [TETRAPHENYLPHOSPHONIUM BROMIDE]
MIC50 [1]: 25 µg/mL | MIC90 [1]: 50 µg/mL | fold change (FC) [4]: 4

CCn1cc(C(=O)O)c(=O)c2cc(F)c(N3CCNCC3)cc21 [NORFLOXACIN]
MIC50 [1]: 12.5 µg/mL (≈ 39.1 µM) | MIC90 [1]: > 100 µg/mL | fold change (FC) [5]: 4

CETRIMIDE
MIC50 [1]: 0.63 µg/mL | MIC90 [1]: 1.25 µg/mL | fold change (FC) [6]: 4

C[n+]1c2cc(N)ccc2cc2ccc(N)cc21.[Cl-] [EUFLAVINE]
MIC50 [1]: 12.5 µg/mL | MIC90 [1]: 50 µg/mL | fold change (FC) [7]: 4

CC[n+]1c(-c2ccccc2)c2cc(N)ccc2c2ccc(N)cc21.[Br-] [HOMIDIUM BROMIDE]
fold change (FC) [8]: 8 | MIC50 [1]: 6.25 µg/mL | MIC90 [1]: 25 µg/mL
